Laboratory results taken from PubChem BioAssay AID1963864 (Molecular Pharmacology Branch, DTP, NCI, 2024).

Test system: KRAS PDC multicell spheroid viability
Test: Anticancer human tumor 521955-158-R6-J3-PDC patient-derived pancreatic carcinoma cell line growth inhibition [KRAS2]
Details: for IC50: curve of first compound; for viability, T/C: stronger effect = lower value
Summary of the method: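 Combination screen of spheroid viability in tumor-cell co-cultures with endothelial (HUVEC) and mesenchymal stem cell stroma. Each agent was tested in half-log dilutions, topping at clinical Cmax or at 10 microM without a known Cmax.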

[1] = second compound 0.1 µM, first compound 0.0316 µM
[2] = second compound 0.1 µM, first compound 0.1 µM
[3] = second compound 0.1 µM, first compound 0.316 µM
[4] = second compound 0.1 µM, first compound 1 µM
[5] = second compound 0.1 µM, first compound 3.16 µM
[6] = second compound 0.316 µM, first compound 0.0316 µM
[7] = second compound 0.316 µM, first compound 0.1 µM
[8] = second compound 0.316 µM, first compound 0.316 µM
[9] = second compound 0.316 µM, first compound 1 µM
[10] = second compound 0.316 µM, first compound 3.16 µM
[11] = second compound 1 µM, first compound 0.0316 µM
[12] = second compound 1 µM, first compound 0.1 µM
[13] = second compound 1 µM, first compound 0.316 µM
[14] = second compound 1 µM, first compound 1 µM
[15] = second compound 1 µM, first compound 3.16 µM
[16] = second compound 3.16 µM, first compound 0.0316 µM
[17] = second compound 3.16 µM, first compound 0.1 µM
[18] = second compound 3.16 µM, first compound 0.316 µM
[19] = second compound 3.16 µM, first compound 1 µM
[20] = second compound 3.16 µM, first compound 3.16 µM
[21] = second compound 10 µM, first compound 0.0316 µM
[22] = second compound 10 µM, first compound 0.1 µM
[23] = second compound 10 µM, first compound 0.316 µM
[24] = second compound 10 µM, first compound 1 µM
[25] = second compound 10 µM, first compound 3.16 µM
[26] = second compound 0.1 µM, first compound 10 µM
[27] = second compound 0.316 µM, first compound 10 µM
[28] = second compound 1 µM, first compound 10 µM
[29] = second compound 3.16 µM, first compound 10 µM
[30] = second compound 10 µM, first compound 10 µM
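Also: drug exposure lasted seven days.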
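For viability, T/C in this document: 100% = DMSO vehicle wells and lower means fewer viable cells.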

Structure (SMILES)	IC50 (second compound 0.1 µM)	IC50 (second compound 0.316 µM)	IC50 (second compound 1 µM)	IC50 (second compound 3.16 µM)	IC50 (second compound 10 µM)	viability, T/C [1]	viability, T/C [2]	viability, T/C [3]	viability, T/C [4]	viability, T/C [5]	viability, T/C [6]	viability, T/C [7]	viability, T/C [8]	viability, T/C [9]	viability, T/C [10]	viability, T/C [11]	viability, T/C [12]	viability, T/C [13]	viability, T/C [14]	viability, T/C [15]	also measured
CC1COCCN1c1cc(-c2ccnn2C)c2ccnc(-c3ccn[nH]3)c2n1 (stereo not given) + COc1cc2nc(C)nc(NC(C)c3cc(N)cc(C(F)(F)F)c3)c2cc1OC1CCOC1	> 3.16 µM	> 3.16 µM	> 3.16 µM	> 3.16 µM	< 0.01 µM	85.4%	71.3%	78.3%	65.5%	80.4%	79.6%	79.1%	71%	64.4%	75.3%	78.2%	78.3%	68.6%	66.8%	74.8%	viability, T/C (second compound 0.1 µM, first compound 0.01 µM): 100%; viability, T/C (second compound 0.316 µM, first compound 0.01 µM): 82.8%; viability, T/C (second compound 1 µM, first compound 0.01 µM): 88.5%; viability, T/C (second compound 3.16 µM, first compound 0.01 µM): 77.6%; viability, T/C [16]: 71.6%; viability, T/C [17]: 62.4%; viability, T/C [18]: 54.6%; viability, T/C [19]: 64.3%; viability, T/C [20]: 59.1%; viability, T/C (second compound 10 µM, first compound 0.01 µM): 41.5%; viability, T/C [21]: 48.4%; viability, T/C [22]: 45.3%; viability, T/C [23]: 34.1%; viability, T/C [24]: 47.6%; viability, T/C [25]: 43.4%
CC1OCC2(CCN(c3cnc(Sc4ccnc(N)c4Cl)c(N)n3)CC2)C1N (stereo not given) + COc1cc2nc(C)nc(NC(C)c3cc(N)cc(C(F)(F)F)c3)c2cc1OC1CCOC1	> 10 µM	> 10 µM	> 10 µM	> 10 µM	< 0.0316 µM	90.6%	82.6%	74.8%	86.5%	116%	82.6%	86.1%	96.8%	87.5%	112%	78%	82.1%	85%	83.7%	103%	viability, T/C [26]: 114%; viability, T/C [27]: 118%; viability, T/C [28]: 124%; viability, T/C [16]: 76.5%; viability, T/C [17]: 79.7%; viability, T/C [18]: 77.2%; viability, T/C [19]: 76.9%; viability, T/C [20]: 99.2%; viability, T/C [29]: 94.6%; viability, T/C [21]: 43.7%; viability, T/C [22]: 34%; viability, T/C [23]: 35.8%; viability, T/C [24]: 27.1%; viability, T/C [25]: 34.1%; viability, T/C [30]: 18%
Cn1nccc1Nc1nccc(-c2cc3c(s2)C(C)(C)N(CCN2CCOCC2)C3=O)n1 + COc1cc2nc(C)nc(NC(C)c3cc(N)cc(C(F)(F)F)c3)c2cc1OC1CCOC1	> 10 µM	> 10 µM	> 10 µM	6.16 µM	< 0.0316 µM	88.5%	111%	96.4%	85.5%	79.6%	86.5%	111%	103%	81.9%	71.2%	79.1%	111%	99.6%	82.2%	65.4%	viability, T/C [26]: 64.8%; viability, T/C [27]: 57.7%; viability, T/C [28]: 56.1%; viability, T/C [16]: 83.6%; viability, T/C [17]: 110%; viability, T/C [18]: 94.8%; viability, T/C [19]: 73.7%; viability, T/C [20]: 55.9%; viability, T/C [29]: 45.8%; viability, T/C [21]: 26.8%; viability, T/C [22]: 30%; viability, T/C [23]: 16%; viability, T/C [24]: 14.1%; viability, T/C [25]: 6.82%; viability, T/C [30]: 3.23%
